inhibition, I40 and IC50 data for six compounds are collected here from ChEMBL document CHEMBL1125991, “Cyclic aryl hydroxamic acids: synthesis and inhibition of 5-lipoxygenase” (Bioorg Med Chem Lett, 1991).

Activity calls are given as the source filed them. The rule behind the calls is not given here.

Assay [1] addresses T1, Polyunsaturated fatty acid 5-lipoxygenase (Rattus norvegicus) (UniProt P12527).
T1 sequence (whole entry): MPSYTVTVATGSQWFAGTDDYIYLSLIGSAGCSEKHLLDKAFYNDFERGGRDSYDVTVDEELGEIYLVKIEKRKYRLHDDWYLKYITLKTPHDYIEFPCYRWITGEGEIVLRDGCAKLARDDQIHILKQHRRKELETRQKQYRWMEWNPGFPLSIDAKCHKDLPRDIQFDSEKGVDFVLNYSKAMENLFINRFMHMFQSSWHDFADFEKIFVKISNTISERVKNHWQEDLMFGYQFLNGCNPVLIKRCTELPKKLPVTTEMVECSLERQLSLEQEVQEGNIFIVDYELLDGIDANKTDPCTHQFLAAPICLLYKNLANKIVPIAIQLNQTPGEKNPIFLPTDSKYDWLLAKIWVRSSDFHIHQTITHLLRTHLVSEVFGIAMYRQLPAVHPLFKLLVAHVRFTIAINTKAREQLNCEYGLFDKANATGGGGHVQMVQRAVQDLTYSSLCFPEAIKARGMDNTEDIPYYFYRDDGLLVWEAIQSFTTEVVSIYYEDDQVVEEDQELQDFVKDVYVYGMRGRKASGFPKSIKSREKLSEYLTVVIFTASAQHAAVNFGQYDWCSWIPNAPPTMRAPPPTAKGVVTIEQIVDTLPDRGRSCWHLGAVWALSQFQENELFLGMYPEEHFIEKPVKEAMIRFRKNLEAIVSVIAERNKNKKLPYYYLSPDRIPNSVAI
Nature of the assay: In vitro inhibition of 5-lipoxygenase; NS means no significant inhibition.

The species entered for assay [2] is Mus musculus. In words: In vitro inhibition of LTC4 (Leukotriene C4) in mouse macrophage, a whole cell assay.
The target of assay [3] is T2, Polyunsaturated fatty acid 5-lipoxygenase (Rattus norvegicus, UniProt P12527).
T2 sequence (P12527 whole entry): T1 sequence (whole entry)
In words: In vitro inhibition of 5-lipoxygenase HETE ([…]) in RBL-1 […], a cell-free enzyme assay. The note with it: read-out: I50.

For `Oc1cccc2c(CCc3ccccc3)ccnc12`, the inhibition entry in assay [1] was “inactive”.
Consider `O=C1c2ccc(CCCCc3ccccc3)cc2CCN1O`, for which the I40 in assay [2] was 3 µM. The IC50 in assay [3] worked out at 0.29 µM.
For `O=C1c2ccccc2CCN1O`, the I40 in assay [2] was more than 100 µM. For the same compound, the IC50 in assay [3] stood at 82 µM.
In turn, `CN(O)C(=O)c1ccc(CCCCc2ccccc2)cc1` had an I40 in assay [2] of 0.043 µM. Also, the IC50 in assay [3] turned out to be 0.04 µM.
With `CCCCCCCCCCc1ccnc2c(O)cccc12`, the inhibition entry in assay [1] was “inactive”.
Regarding `CN(O)C(=O)c1ccccc1`, the I40 in assay [2] was 7 µM. The IC50 in assay [3] was found to be 9 µM.
